Measurements published in the supplement of paper PMC10307832.

Experiments:
Assay in all cases: relative viability (nuclei count vs DMSO), 5 days (fraction); higher = more cells survive
[1] = compound: O=C(CCCCCCNC(=O)c1cnc(N(c2ccccc2)c2ccccc2)nc1)NO [Ricolinostat] + CS(=O)(=O)N1CCN(Cc2cc3nc(-c4cccc5[nH]ncc45)nc(N4CCOCC4)c3s2)CC1 [Pictilisib] (partner 1 µM)
Outline: (§1)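 Lung cancer cell lines in 1536-well plates got either a single drug or a fixed anchor-drug dose together with five library-drug doses (not always all listed) in √10 steps, by pin tool, on the day after seeding. Nuclei were counted after 5 days, and relative viability is the treated-to-vehicle ratio of nuclei counts. Values are medians of duplicate plates.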

[2] = compound: C1=CC=C(C(=C1)C2=CC=C(C=C2)C3=CSC4=C3C(=C(C(=O)N4)C#N)O)O + C[C@]1(O)C[C@@H](c2nc(-c3ccc4ccc(-c5ccccc5)nc4c3)c3c(N)nccn32)C1 [Linsitinib] (partner 1 µM)
Outline: as §1

[3] = compound: C1=CC=C(C(=C1)C2=CC=C(C=C2)C3=CSC4=C3C(=C(C(=O)N4)C#N)O)O + N=C(N)NC(=N)NCCc1ccccc1 [Phenformin] (partner 250 µM)
Outline: as §1

TGX 221 + AZD7762 = compound: CC1=CN2C(=O)C=C(N=C2C(=C1)C(C)NC3=CC=CC=C3)N4CCOCC4 [TGX 221] + NC(=O)Nc1cc(-c2cccc(F)c2)sc1C(=O)N[C@H]1CCCNC1 [AZD7762] (partner 0.2 µM)
Outline: as §1

NCI-H1792
relative viability ([1]; first compound 0.08 µM): 0.248
relative viability ([1]; first compound 0.253 µM): 0.281
relative viability ([1]; first compound 0.8 µM): 0.243
relative viability ([1]; first compound 2.53 µM): 0.169
relative viability ([2]; first compound 0.253 µM): 0.436
relative viability ([2]; first compound 0.8 µM): 0.542
relative viability ([2]; first compound 2.53 µM): 0.474
relative viability ([2]; first compound 8 µM): 0.317
relative viability ([3]; first compound 0.08 µM): 0.113
relative viability ([3]; first compound 0.253 µM): 0.283
relative viability ([3]; first compound 0.8 µM): 0.287
relative viability ([3]; first compound 2.53 µM): 0.36
relative viability ([3]; first compound 8 µM): 0.268
relative viability (TGX 221 + AZD7762; first compound 0.08 µM): 0.625
relative viability (TGX 221 + AZD7762; first compound 0.253 µM): 0.625
relative viability (TGX 221 + AZD7762; first compound 0.8 µM): 0.602
relative viability (TGX 221 + AZD7762; first compound 2.53 µM): 0.556
relative viability (TGX 221 + AZD7762; first compound 8 µM): 0.418
